Series [1] deals with HL-60 human promyelocytic leukemia cells. Description: Toxicity to cultured HL-60 cells, number of viable cells. The series is classed as cell-based. From the text:
(§1) 2. Effects of orotate analogues on cell viability and the ability to synthesize nucleic acids from radioactive precursors, and the rescuing effects of normal pyrimidine bases or nucleosides or amino acid derivatives such as histidinol, can be tested in human-derived tissue culture cell lines. Human HT-1080 human sarcoma cells [Rusheed, S., et al., Cancer, 33:1027-30 (1974)], human diploid IMR-90 cells [Nichols, W. W., et al., Science, 196:60-3 (1977)], human cervical […] HeLa S3 cells [Puck, T. T., et al., J. Exp. Med., 103:273-84 (1956)], HL-60 human myeloid leukemia cells [Collins, S. J., et al., Nature, 270:347-9 (1977)], and mouse leukemia L-1210 cells [Moore, G. E., J. Nat. […] The growth medium most suitable for each cell line can be determined by reference to the publications cited above: briefly, HT-1080 cells are maintained in Eagle's Minimal Essential Medium (EMEM) supplemented with 5% fetal bovine serum (FBS) and 2 mM L-glutamine; IMR-90 cells are grown in EMEM supplemented with 10% FBS, 10 mM Hepes buffer, 0.21% NaHCO3, and 2 mM L-glutamine. […]
(§2) Toxicity of pyrimidine analogues to cultured human cells is determined as follows. […] Thereafter, the number of cells in each well is determined. […] Cells that grow in suspension (e.g., HL-60 and L-1210 cells) are transferred to centrifuge tubes, pelleted at low speed, washed, and the viability determined as above. […]

Series [2] deals with L-1210 mouse lymphocytic leukemia cells. Description: Toxicity to cultured L-1210 cells, number of viable cells. The series is classed as cell-based.
Excerpt: as §1, §2

Another series deals with mammalian cell lines. Description: Toxicity to a battery of mammalian cell lines. In kind it is cell-based, human and mouse.
Excerpt: as §1, §2

Series [3] can be described thus: Pharmacokinetics of 5-fluoro-orotate in mice. The series is classed as in vivo, Swiss white mice. The procedure: FIG. 3 illustrates time-dependant changes in plasma 5-fluoroorotate concentration following single intraperitoneal injections of 5-fluoro-orotate at 0.2 mg/kg (.box-solid.), 1 mg/kg (.diamond-solid.), or 5 mg/kg (.tangle-solidup.). Two mice were used at each dosage level. At each time point, duplicate 200 μl samples of blood were drawn and analyzed for 5-fluoro-orotate concentration.
Several types of in vivo experiments in intact vertebrates can be used to test the effectiveness in vivo of the anti-malarial compositions of this invention. In one in vivo test system, dosage regimens for pyrimidine analogues are estimated by determining the pharmacokinetics of the drugs. Normal and malaria parasite-infected animals (preferably mice, but other rodents can be used) are injected once (preferably intraperitoneally, but subcutaneous or intravenous administration is also suitable) with the drug at various doses, e.g, from 0 to about 10 mg/kg body weight, preferably from about 0.2 to about 5 mg/kg body weight. At various time points (preferably from about 3 to about 180 minutes), blood samples are drawn from the animals and the amount of the drug in the plasma fraction determined as described in Example 7 below. The concentration of drug is plotted as a function of time for each drug dosage.
Pairs of Swiss white mice (Charles River Labs, Mass.) were injected intraperitoneally with 200 μl of [2-^14 C]-5-fluoro-orotate in saline (55 μCi/μmol). Single injections of the drug were made at dosages of 0.2, 1 and 5 mg/kg body weight. At time points ranging from about 3 to about 180 minutes, two 200 μl blood samples were drawn from the tail veins of the mice, and the amount of 5-fluoro-orotate present in the plasma determined, as described below.
Blood samples were immediately diluted in 100 μl of cold saline, and centrifuged in a desk top Eppendorf centrifuge for 1 minute to separate the plasma fraction from blood cells. Cell pellets were washed with 100 μl of saline, centrifuged, and the supernatant fractions mixed with plasma fractions. In order to determine the 5-fluoro-orotate concentrations of the diluted plasma fractions, the radioactive content of half the samples was determined by liquid scintillation spectrometry. The remaining samples were chromatographed on a Pharmacia FPLC system using a Mono Q anion-exchange column.

Read-outs that look alike come from different tables or passages of the source.

Turning to `O=C(O)c1[nH]c(=O)[nH]c(=O)c1F` [5-fluoro-orotate], the IC50 in series [1] (HL-60, with 1 mM uridine, read-out: IC50 With 1 mM Uridine) was 4.5 µM; in series [1] (HL-60, without uridine, read-out: IC50 Without Uridine), 0.9 µM; in series [2] (L1210, L-1210, with 1 mM uridine, read-out: IC50 With 1 mM Uridine), 5 µM; in series [2] (L1210, L-1210, without uridine, read-out: IC50 Without Uridine), 2.8 µM; with mammalian cell lines (read-out: IC50 range over the mammalian cell lines), 0.9 to 10 µM. Besides, the “toxicity to rapidly dividing mammalian cells” value in the series on mammalian cell lines (0.1 to 1 μM, in culture) is recorded as “not toxic to rapidly dividing mammalian cells in culture”. In addition, the “identity of plasma radioactivity” value in series [3] (90 minutes after injection, Mono Q chromatography) was “radioactivity in the plasma fraction was due to 5-fluoro-orotate and not some secondary metabolite of the experimental drug”. Moreover, the “plasma pharmacokinetic profile in infected mice” value in series [3] (P. yoelii infected (10% parasitemia), 1 mg/kg, vs uninfected mice) is “essentially the same as that of uninfected mice”. The “circulating radioactivity associated with blood cells” value in series [3] ([2-14C]-5-fluoro-orotate i.p.) is recorded as “below 10%”. In addition, the half-life in series [3] (mouse, ip, single i.p. dose, plasma, mice, read-out: t1/2 (loss from the circulation)) is approximately 1.5 h. Moreover, in series [3] (mouse, plasma, ip, 0.2 mg/kg i.p., within 60 minutes, read-out: drug concentration within 60 minutes), the concentration at 1 h was less than 0.5 µM. Further, the Cmax in series [3] (mouse, plasma, ip, 0.2 mg/kg i.p., read-out: maximum drug concentration) is not above 2 µM; in series [3] (mouse, plasma, ip, single i.p. 5 mg/kg, read-out: peak plasma concentration) it was approximately 30 µM. Besides, the Tmax in series [3] (mouse, plasma, ip, single i.p. 0.2, 1, 5 mg/kg, all dosages, read-out: time of peak plasma concentration) was not above 0.333 h. In addition, the concentration in series [3] (single i.p. 5 mg/kg, read-out: plasma concentration after rapid drop) was less than 10 µM.

As a reminder, the IC50 is the concentration that inhibits the measured activity by half.

The values above are taken from US6159953A, “Anti-malarial composition and method of use” (Catholic University of America, priority 1992, dated 2000).
